# Reference: patent US4950686A, “Anti-mycoplasma agent” (Shionogi & Co., Ltd., priority 1986, dated 1990)
# Tests used:
# [1] = tested on: Mycoplasma gallisepticum MR-1 (wild strain, tylosin-resistant); assay: Mycoplasma gallisepticum air-sac infection method in chicken, strain MR-1;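 on Index of Isolation: index = (P×1 + Q×2 + R×3)/S with range 0 to 6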; format: in vivo, Mycoplasma gallisepticum; SPF chicken (white leghorn); details: 100 mg/kg × once oral, 10 mg/ml sol. b
# Procedure: (2) Test of Effectiveness Mycoplasma gallisepticum air-sac infection method
# MR-1 (wild strain, tylosin-resistant)
# Inoculation: To the right air-sac of 9 days old SPF chicken (a white leghorn) which has abstained from water and feed one day before is inoculated 0.20-0.25 ml/chicken of fresh mycoplasma culture incubated for 24-48 hr and diluted with broth (usually 100 times). The concentration in Table 2 is shown in a unit of mg/ml.
# Medium: Chick PPLO broth supplemented with 15% equine serum (Eiken Kagaku Co., Ltd.)
# Administration: A compound of this invention dissolved or suspended in the following solution is orally and forcibly administered once by a cannula immediately after the infection.
# Anatomization and Isolation of Microorganism: The chickens are anatomized 5 days after the infection, and the right and left air sacs are investigated whether they are attacked with a disease or not. The change caused by the disease is represented in four degrees; -: no change, +: slight, ++: medium and +++: serious. Microorganism is isolated from the right and left air-sacs and the trachea by using a sterilized applicator.
# Judgement: Judgement is done through an index of an air-sac disease and an index of a microorganism-isolation.
# Index of an air-sac-disease: First, indexes in the right and left air-sacs are separately calculated according to the following formula;
# {degree of disease (0-3)×chickens}/anatomized chickens
# and the index is calculated by the following formula;
# (index of right air-sac)×1+(index of left air-sac)×2
# Index of a microorganism isolation:
# P: chickens from the right air-sac of which microorganism is isolated,
# Q: chickens from the trachea of which microorganism is isolated,
# R: chickens from the left air-sac of which microorganism is isolated, and
# S: chickens investigated.
# [2] = tested on: Mycoplasma gallisepticum S6 (standard strain); assay: Anti-mycoplasma activity in vitro (MIC, broth dilution), strain S6; format: cell-based; details: Mg S6, 37° C., 7 days
# In short: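 Chick PPLO broth with 20% equine serum; 2-fold serial agent dilutions inoculated with culture diluted to 10^6 CCU/ml (inoculum concentration before addition). Incubated 7 days at 37 °C; MIC by broth dilution.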
# [3] = tested on: Mycoplasma hyopneumoniae ST-11 (standard strain); assay: Anti-mycoplasma activity in vitro (MIC, broth dilution), strain ST-11; format: cell-based; details: Mesomycoplasma hyopneumoniae, Mh ST-11; read-out: MIC
# In short: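 MIC by broth dilution in Hanks' solution with 0.5% lactoalbumin, yeast, equine serum and phenol red, pH 7.4-7.6. Inoculum: 3-4-day culture, turned yellow, diluted 10-fold in broth (subcultured first if yellowing took over 4 days).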
# [4] = tested on: Mycoplasma gallisepticum T-7-T (wild strain, tylosin-resistant); assay: Anti-mycoplasma activity in vitro (MIC, broth dilution), strain T-7-T; format: cell-based; details: Mg T-7-T, 37° C., 7 days
# In short: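 Broth dilution MIC in chick PPLO broth with 20% equine serum, using 2-fold agent dilutions. Inoculum of 24-48 h culture diluted to 10^6 CCU/ml before use. Incubated 7 days at 37° C.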
# [5] = tested on: Mycoplasma gallisepticum T-7-T (wild strain, tylosin-resistant); assay: Mycoplasma gallisepticum air-sac infection method in chicken, strain T-7-T; format: in vivo, Mycoplasma gallisepticum; SPF chicken (white leghorn);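 on Index of Isolation: index = (P×1 + Q×2 + R×3)/S with range 0 to 6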
# In short: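 9-day-old SPF white leghorn chickens, fasted one day, received tylosin-resistant M. gallisepticum T-7-T culture (usually diluted 100×) into the right air sac. Compound was given as a single forced oral dose by cannula immediately after infection, in mg/ml. At day 5, air-sac lesions (0–3) were scored as a weighted index and organisms were re-isolated from the air sacs and trachea.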
# [6] = tested on: Mycoplasma gallisepticum MR-1 (wild strain, tylosin-resistant); assay: Anti-mycoplasma activity in vitro (MIC, broth dilution), strain MR-1; format: cell-based; details: Mg MR-1, 37° C., 7 days
# In short: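 Broth dilution in chick PPLO broth with 20% equine serum; 2-fold compound dilutions, inoculum diluted to 10^6 CCU/ml. Incubated 7 days at 37 °C; MIC recorded.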
# [7] = 100 mg/kg × once oral, 10 mg/ml sol. b, inoculum 10^2
# [8] = 200 mg/kg × once oral, 20 mg/ml sol. a, inoculum 1.9 × 10^5
# [9] = 200 mg/kg × once oral, 20 mg/ml sol. c, inoculum 1.9 × 10^5
smiles,measurement,setting,value
"O=c1cccccc1O [Tropolone, tropolone]","Change of air-sac, left: + (chickens)",[1]; inoculum 0.3 × 10^5,0
same,"Change of air-sac, left: ++ (chickens)",[1]; inoculum 0.3 × 10^5,0
same,"Change of air-sac, left: +++ (chickens)",[1]; inoculum 0.3 × 10^5,0
same,"Change of air-sac, left: - (chickens)",[1]; inoculum 0.3 × 10^5,6
same,"Change of air-sac, right: + (chickens)",[1]; inoculum 0.3 × 10^5,0
same,"Change of air-sac, right: ++ (chickens)",[1]; inoculum 0.3 × 10^5,0
same,"Change of air-sac, right: +++ (chickens)",[1]; inoculum 0.3 × 10^5,0
same,"Change of air-sac, right: - (chickens)",[1]; inoculum 0.3 × 10^5,6
same,"Isolation, L (left air-sac)",[1]; inoculum 0.3 × 10^5,3
same,"Isolation, R (right air-sac)",[1]; inoculum 0.3 × 10^5,4
same,"Isolation, T (trachea)",[1]; inoculum 0.3 × 10^5,3
same,Mycoplasma Isolated Chickens,[1]; inoculum 0.3 × 10^5,6
same,Index of Isolation,"[1]; inoculum 0.3 × 10^5, range 0-6.0",3.2
same,Index of Disease,"[1]; inoculum 0.3 × 10^5, range 0-9.0",0
same,MIC,[2],0.2 µg/mL
same,MIC,[3],0.78 µg/mL
same,MIC,[4],0.39 µg/mL
same,"Change of air-sac, left: + (chickens)",[5]; [7],0
same,"Change of air-sac, left: ++ (chickens)",[5]; [7],0
same,"Change of air-sac, left: +++ (chickens)",[5]; [7],0
same,"Change of air-sac, left: - (chickens)",[5]; [7],8
same,"Change of air-sac, right: + (chickens)",[5]; [7],0
same,"Change of air-sac, right: ++ (chickens)",[5]; [7],0
same,"Change of air-sac, right: +++ (chickens)",[5]; [7],0
same,"Change of air-sac, right: - (chickens)",[5]; [7],8
same,"Isolation, L (left air-sac)",[5]; [7],1
same,"Isolation, R (right air-sac)",[5]; [7],0
same,"Isolation, T (trachea)",[5]; [7],1
same,Mycoplasma Isolated Chickens,[5]; [7],2
same,Index of Isolation,"[5]; 100 mg/kg × once oral, 10 mg/ml sol. b, inoculum 10^2, range 0-6.0",0.40
same,Index of Disease,"[5]; 100 mg/kg × once oral, 10 mg/ml sol. b, inoculum 10^2, range 0-9.0",0
same,"Change of air-sac, left: + (chickens)",[5]; [8],0
same,"Change of air-sac, left: ++ (chickens)",[5]; [8],0
same,"Change of air-sac, left: +++ (chickens)",[5]; [8],0
same,"Change of air-sac, left: - (chickens)",[5]; [8],5
same,"Change of air-sac, right: + (chickens)",[5]; [8],0
same,"Change of air-sac, right: ++ (chickens)",[5]; [8],0
same,"Change of air-sac, right: +++ (chickens)",[5]; [8],0
same,"Change of air-sac, right: - (chickens)",[5]; [8],5
same,"Isolation, L (left air-sac)",[5]; [8],2
same,"Isolation, R (right air-sac)",[5]; [8],2
same,"Isolation, T (trachea)",[5]; [8],3
same,Mycoplasma Isolated Chickens,[5]; [8],3
same,Index of Isolation,"[5]; 200 mg/kg × once oral, 20 mg/ml sol. a, inoculum 1.9 × 10^5, range 0-6.0",2.8
same,Index of Disease,"[5]; 200 mg/kg × once oral, 20 mg/ml sol. a, inoculum 1.9 × 10^5, range 0-9.0",0
same,"Change of air-sac, left: + (chickens)",[5]; [9],0
same,"Change of air-sac, left: ++ (chickens)",[5]; [9],0
same,"Change of air-sac, left: +++ (chickens)",[5]; [9],0
same,"Change of air-sac, left: - (chickens)",[5]; [9],5
same,"Change of air-sac, right: + (chickens)",[5]; [9],0
same,"Change of air-sac, right: ++ (chickens)",[5]; [9],0
same,"Change of air-sac, right: +++ (chickens)",[5]; [9],0
same,"Change of air-sac, right: - (chickens)",[5]; [9],5
same,"Isolation, L (left air-sac)",[5]; [9],4
same,"Isolation, R (right air-sac)",[5]; [9],4
same,"Isolation, T (trachea)",[5]; [9],5
same,Mycoplasma Isolated Chickens,[5]; [9],5
same,Index of Isolation,"[5]; 200 mg/kg × once oral, 20 mg/ml sol. c, inoculum 1.9 × 10^5, range 0-6.0",5.2
same,Index of Disease,"[5]; 200 mg/kg × once oral, 20 mg/ml sol. c, inoculum 1.9 × 10^5, range 0-9.0",0
same,MIC,[6],0.39 µg/mL
